Activity calls are given as the source filed them. No cut-off for these calls is given here.
Legend:
MCF-10A = test: PROTAC activity at MEP50/VHL in human MCF-10A cells assessed as degradation at 0.5 to 5 uM after 3 days by Western blot analysis; type: cell-based; settings: dose 0.5-5 µM, time 3.0 day
[1] = molecular target: T1, von Hippel-Lindau disease tumor suppressor/Methylosome protein WDR77 (Homo sapiens, UniProt Q9BQA1+P40337); test: PROTAC activity at MEP50/VHL in VHL KO human MDA-MB-468 cells assessed as degradation at 5 uM of compound after 24 hrs by Western blot analysis; type: cell-based
Target sequence in this assay (P40337 whole entry, looked up): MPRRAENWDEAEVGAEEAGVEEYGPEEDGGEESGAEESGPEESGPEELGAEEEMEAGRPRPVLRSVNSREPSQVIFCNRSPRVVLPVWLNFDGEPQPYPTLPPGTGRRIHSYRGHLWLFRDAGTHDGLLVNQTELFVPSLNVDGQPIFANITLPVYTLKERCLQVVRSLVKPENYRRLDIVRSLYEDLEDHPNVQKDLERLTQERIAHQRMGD
Target sequence in this assay (Q9BQA1 whole entry, looked up): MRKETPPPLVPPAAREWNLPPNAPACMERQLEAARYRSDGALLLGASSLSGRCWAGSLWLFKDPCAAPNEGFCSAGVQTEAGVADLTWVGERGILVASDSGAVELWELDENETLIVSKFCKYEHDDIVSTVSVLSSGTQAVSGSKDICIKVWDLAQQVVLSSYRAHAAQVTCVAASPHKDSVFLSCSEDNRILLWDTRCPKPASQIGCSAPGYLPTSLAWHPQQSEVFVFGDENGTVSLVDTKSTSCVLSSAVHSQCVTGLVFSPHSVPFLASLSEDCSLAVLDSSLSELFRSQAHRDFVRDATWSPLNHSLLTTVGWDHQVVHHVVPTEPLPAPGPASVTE

[2] = molecular target: T2, von Hippel-Lindau disease tumor suppressor/Protein arginine N-methyltransferase 5 (Homo sapiens, UniProt O14744+P40337); test: PROTAC activity at PRMT5/VHL in human MCF7 cells assessed as degradation at 5 uM after 3 days by Western blot analysis; type: cell-based; settings: time 3.0 day
Target sequence in this assay (O14744 whole entry, looked up): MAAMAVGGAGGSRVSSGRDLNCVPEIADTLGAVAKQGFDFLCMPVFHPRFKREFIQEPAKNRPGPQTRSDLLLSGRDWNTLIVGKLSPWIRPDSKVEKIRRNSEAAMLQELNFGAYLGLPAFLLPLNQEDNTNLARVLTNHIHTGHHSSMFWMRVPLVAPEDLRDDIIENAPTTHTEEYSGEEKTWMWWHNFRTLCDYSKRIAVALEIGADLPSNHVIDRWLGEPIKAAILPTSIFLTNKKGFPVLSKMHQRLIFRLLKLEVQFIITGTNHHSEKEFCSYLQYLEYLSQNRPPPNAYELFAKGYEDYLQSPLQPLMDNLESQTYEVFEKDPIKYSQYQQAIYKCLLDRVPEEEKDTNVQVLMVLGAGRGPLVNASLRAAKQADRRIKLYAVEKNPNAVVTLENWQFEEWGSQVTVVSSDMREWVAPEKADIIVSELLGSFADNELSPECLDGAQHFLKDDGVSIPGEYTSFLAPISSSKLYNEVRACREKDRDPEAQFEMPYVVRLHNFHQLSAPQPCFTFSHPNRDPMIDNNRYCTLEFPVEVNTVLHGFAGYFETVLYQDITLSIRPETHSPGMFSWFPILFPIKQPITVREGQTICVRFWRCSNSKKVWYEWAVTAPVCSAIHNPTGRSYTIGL
Target sequence in this assay (P40337 whole entry, looked up): as the sequence (P40337 whole entry, looked up) above

[3] = molecular target: T2, von Hippel-Lindau disease tumor suppressor/Protein arginine N-methyltransferase 5; test: PROTAC activity at PRMT5/VHL in human MDA-MB-468 cells assessed as maximal degradation measured after 72 hrs by Western blot analysis relative to control; type: cell-based
Target sequence in this assay (O14744 whole entry, looked up): as the sequence (O14744 whole entry, looked up) above
Target sequence in this assay (P40337 whole entry, looked up): as the sequence (P40337 whole entry, looked up) above

[4] = molecular target: T1, von Hippel-Lindau disease tumor suppressor/Methylosome protein WDR77; test: PROTAC activity at MEP50/VHL in human MDA-MB-468 cells assessed as degradation at 2 uM by Western blot analysis; type: cell-based; settings: time 3-48 hrs
Target sequence in this assay (P40337 whole entry, looked up): as above
Target sequence in this assay (Q9BQA1 whole entry, looked up): as the sequence (Q9BQA1 whole entry, looked up) above

[5] = molecular target: T2, von Hippel-Lindau disease tumor suppressor/Protein arginine N-methyltransferase 5; test: PROTAC activity at PRMT5/VHL in human MDA-MB-468 cells assessed as degradation measured after 72 hrs by Western blot analysis; type: cell-based
Target sequence in this assay (O14744 whole entry): as the sequence (O14744 whole entry, looked up) above
Target sequence in this assay (P40337 whole entry): as the sequence (P40337 whole entry, looked up) above

[6] = molecular target: T1, von Hippel-Lindau disease tumor suppressor/Methylosome protein WDR77; test: PROTAC activity at MEP50/VHL in human MDA-MB-468 cells assessed as maximal degradation measured after 72 hrs by Western blot analysis relative to control; type: cell-based
Target sequence in this assay (P40337 whole entry, looked up): as above
Target sequence in this assay (Q9BQA1 whole entry, looked up): as the sequence (Q9BQA1 whole entry, looked up) above

MDA-MB-468 = test: Inhibition of sDMA (symmetric dimethylarginine) level in human MDA-MB-468 cells at 2 uM measured after 7 days by Western blot analysis; type: functional, cell-based; settings: time 7.0 day
PC-3 = test: Inhibition of colony formation in human PC-3 cells incubated for 10 days by crystal violet staining based analysis; type: functional, cell-based; settings: time 10.0 day
[7] = molecular target: T1, von Hippel-Lindau disease tumor suppressor/Methylosome protein WDR77; test: PROTAC activity at MEP50/VHL in human MDA-MB-468 cells assessed as degradation measured after 72 hrs by Western blot analysis relative to control; type: cell-based
Target sequence in this assay (Q9BQA1 whole entry): as the sequence (Q9BQA1 whole entry, looked up) above
Target sequence in this assay (P40337 whole entry): as the sequence (P40337 whole entry, looked up) above

HCC70 = test: Growth inhibition of human HCC70 cells assessed as cell viability measured after 5 days by CCK-8 assay; type: functional, cell-based; settings: time 5.0 day
[8] = molecular target: Protein arginine N-methyltransferase 5 (Homo sapiens, UniProt O14744); test: Inhibition of PRMT5 (unknown origin) using S-adenosylmethionine (SAM) using as substrate preincubated for 30 mins followed by substrate addition measured after 60 mins by microplate reader
Protein arginine N-methyltransferase 5, sequence (O14744 whole entry): as the sequence (O14744 whole entry, looked up) above

[9] = molecular target: T2, von Hippel-Lindau disease tumor suppressor/Protein arginine N-methyltransferase 5; test: PROTAC activity at PRMT5/VHL in VHL KO human MDA-MB-468 cells assessed as degradation at 5 uM of compound after 24 hrs by Western blot analysis; type: cell-based
Target sequence in this assay (O14744 whole entry, looked up): as above
Target sequence in this assay (P40337 whole entry, looked up): as the sequence (P40337 whole entry, looked up) above

[10] = molecular target: T2, von Hippel-Lindau disease tumor suppressor/Protein arginine N-methyltransferase 5; test: PROTAC activity at PRMT5/VHL in human MDA-MB-468 cells assessed as degradation pretreated with MG132 proteasome inhibitor followed by treated at 5 uM of compound after 24 hrs by Western blot analysis; type: cell-based
Target sequence in this assay (O14744 whole entry, looked up): as the sequence (O14744 whole entry, looked up) above
Target sequence in this assay (P40337 whole entry, looked up): as the sequence (P40337 whole entry, looked up) above

MCF7 = test: Growth inhibition of human MCF7 cells assessed as cell viability measured after 5 days by CCK-8 assay; type: functional, cell-based; settings: time 5.0 day
[11] = molecular target: T1, von Hippel-Lindau disease tumor suppressor/Methylosome protein WDR77; test: PROTAC activity at MEP50/VHL in human MDA-MB-468 cells assessed as downregulation of MEP50 at 2 uM of compound after 24 hrs by mass spectrometry (MS)-based global proteomic study; type: cell-based
Target sequence in this assay (P40337 whole entry, looked up): as above
Target sequence in this assay (Q9BQA1 whole entry, looked up): as the sequence (Q9BQA1 whole entry, looked up) above

In the case of `Cc1ncsc1-c1ccc([C@H](CC(=O)NCCOCCOCCOCCOCCOCCC(=O)N2CCC(Nc3cc(C(=O)NC[C@H](O)CN4CCc5ccccc5C4)ncn3)CC2)NC(=O)[C@@H]2C[C@@H](O)CN2C(=O)[C@@H](NC(=O)C2(F)CC2)C(C)(C)C)cc1`, the Activity (MCF-10A) is reported as 100%, the Activity [1] is reported as “Not active; Complete Rescue Not Observed - Due To Incomplete Vhl Ko” and the Activity [2] is reported as “Active”. The Emax [3] was 86%, the Activity [4] was “Time-dependent-effect” and the DC50 [5] was 17.4 nM. The Emax [6] was 91.4%, the inhibition (MDA-MB-468) was “Active” and the Activity (PC-3) was “Active”. For the same compound, the DC50 [7] was 11.3 nM, the “growth inhibition (GI)” value (HCC70) was “Active” and the IC50 [8] was 2100 nM. The Activity [9] was “Not active; Complete Rescue Not Observed - Due To Incomplete Vhl Ko”, the Activity [10] was “inactive” and the “growth inhibition (GI)” value (MCF7) was “Active”. The Activity [11] was “Active”.

— ChEMBL document CHEMBL6109159, “Discovery of a Potent and Selective Protein Arginine Methyltransferase 5 (PRMT5) PROTAC Degrader” (J Med Chem, 2025)
